In assay [1] the target is T1, Pantothenate kinase (Mycobacterium tuberculosis (strain ATCC 25618 / H37Rv), UniProt P9WPA7).
T1 sequence (P9WPA7 whole entry): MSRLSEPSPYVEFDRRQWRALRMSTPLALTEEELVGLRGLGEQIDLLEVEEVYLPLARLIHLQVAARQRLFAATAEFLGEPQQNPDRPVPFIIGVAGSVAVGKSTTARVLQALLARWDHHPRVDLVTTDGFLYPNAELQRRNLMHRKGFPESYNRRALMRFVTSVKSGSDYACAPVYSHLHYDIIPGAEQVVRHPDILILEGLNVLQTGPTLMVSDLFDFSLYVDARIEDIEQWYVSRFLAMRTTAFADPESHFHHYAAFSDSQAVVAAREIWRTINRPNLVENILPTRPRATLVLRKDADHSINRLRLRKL
Nature of the assay: Biochemical Assay (ATP at Km). The method, then: Briefly, MtPanK activity was measured in a pyruvate kinaselactate dehydrogenase-coupled assay where the reaction rate was determined by spectrophotometric measurement of NADH consumption. IC50 measurements were performed with a suitable concentration range of inhibitory compound, while keeping the concentration of pantothenate and ATP at 122 and 395 µM, respectively, which is their respective Km.

Assay [2] addresses T1, Pantothenate kinase. The assay can be described thus: Biochemical Assay (ATP at 50x Km). The protocol:
Briefly, MtPanK activity was measured in a pyruvate kinaselactate dehydrogenase-coupled assay where the reaction rate was determined by spectrophotometric measurement of NADH consumption. A second set of IC50 measurements were performed with the ATP concentration at 50× Km, to determine the effect of cofactor competition.

Where only a bound is given, the exact number is not on record here.

Regarding `N#Cc1ccc(-c2ccc(COC(=O)O)cc2CN2CCN(c3ccccn3)CC2)cc1` [Biaryl 2a], the figures for the 50% inhibitory concentration (IC50) against Pantothenate kinase [1] and against Pantothenate kinase [2] were 120 nM and 0.13 µM, respectively. Take `N#Cc1ccc(-c2ccc(OCC(N)=O)cc2CN2CCN(c3ccccn3)CC2)cc1` [Biaryl 2b]: the IC50 at Pantothenate kinase [1] worked out at 550 nM. For `CC(NC(=O)c1ccccc1C(F)(F)F)c1nnc(SCCOc2ccc(F)cc2)n1C` (stereo not given) [Triazole 1a], the IC50 at Pantothenate kinase [1] is 90 nM; on Pantothenate kinase [2], 5.5 µM. Taken in the same sequence, the figures for `CC(NC(=O)c1ccccc1Cl)c1nnc(SCCOc2ccc(F)cc2)n1C` (stereo not given) [Triazole 1b] were 1130 nM and over 12.5 µM. For `CC(NC(=O)c1ccccc1C(F)(F)F)c1nnc(SCc2ccc(F)cc2)n1C` (stereo not given) [Triazole 1c] the same measures were 150 nM and 10.4 µM.

As to `Cc1ccccc1OCCSc1nnc(C(C)NC(=O)c2ccccc2C(F)(F)F)n1C` (stereo not given) [Triazole 1d], the IC50 against Pantothenate kinase [1] came out at 140 nM; against Pantothenate kinase [2], 2.82 µM. As to `CC(NC(=O)c1ccccc1C(F)(F)F)c1nnc(SCCOc2ccc(F)cc2)n1Cc1ccc(F)cc1` (stereo not given) [Triazole 1e], the concentration for half-maximal inhibition (IC50) on Pantothenate kinase [1] stood at 50 nM; against Pantothenate kinase [2], 0.69 µM.

`CC(NC(=O)c1c(F)cccc1F)c1nnc(SCCOc2ccc(F)cc2)n1C` (stereo not given) [Triazole 1f]: the IC50 at Pantothenate kinase [1] was 1090 nM; at Pantothenate kinase [2], 14 µM.

The values are drawn from BindingDB's records for doi:10.1074/jbc.M113.476473 (Uppsala University, 2013).
